Source: patent US20250099496A1, “Dihydronicotinamide Riboside (NRH) Therapy for Osteoarthritis and other Conditions” (The Regents of the University of California, priority 2022, published 2025)

Key:
gout patients = details: each arm: 40, 80 and 120 mg per day; 60 gout patients with baseline SU ≥8 mg/dL; cited from earlier work
PNP = PNP (Homo sapiens, UniProt P00491); details: cited from earlier work
human OA chondrocytes [1] = test: IL-1β-induced nitric oxide (NO) generation in human OA chondrocytes; type: cell-based; details: for concentration at which significant inhibition of IL-1β-induced NO release was observed when used alone: chondrocytes, previously demonstrated
Protocol: The effectiveness of NR on inhibition of IL-1β-induced nitric oxide (NO) generation in human chondrocytes was influenced by the presence or absence of serum (which contains PNP) in the cell culture media. Human OA chondrocytes (donor OA278) were treated with a PNP inhibitor Ulodesine (5 uM) for 2 h and then NR (10 or 100 uM) for 1 h, followed by IL1β (2 ng/ml) for 24 h under serum (10% FCS)-present (FIG. 6A) or serum-free condition (FIG. 6B). The conditioned media was used for measuring generation of nitric oxide (NO), a known contributor of cartilage degradation.
Effectiveness of combination of low-dose of NAD precursors (NR or NRH) with a PNP inhibitor Ulodesine on inhibition of IL-1β-induced nitric oxide (NO) generation in human chondrocytes under the serum-presence condition. Human OA chondrocytes from donor OA277 (FIG. 7A) or OA279 (FIG. 7B) were treated with Ulodesine (5 uM) for 2 h and then NR or NRH at 10 uM for 1 h, followed by IL1p (2 ng/ml) for 24 h under serum-present (10% FCS) condition. The conditioned media was used for measuring NO generation.

[2] = system: MSU crystal-induced inflammation; test: MSU crystal-induced inflammation in the gout-like air pouch model in mice; type: in vivo; details: via gavage, 400 mg/kg/day
Protocol: It was observed that blood NAD levels decrease, correlated with increase in CD38 expression in peripheral blood mononuclear cells in gout patients compared to healthy subjects. […] The effect of oral supplementation of NR or NRH (via gavage, 400 mg/kg/day) on MSU crystal-induced inflammation in the gout-like air pouch model in mice was tested (FIG. 8). The development of the air pouch leads to a pouch lining tissue that is morphologically like the synovium in joints, in which injection of sterile-filtered air under the skin on the back of the test animal provides an environment that is used to simulate the effects of diseases such as gout. […] Given the potential of Ulodesine in lowering uric acid and of NR or NRH in limiting MSU crystal-induced inflammation, combination of NR or NRH with Ulodesine, or other PNP inhibitors, presents a novel therapeutic approach for gout.

[3] = metabolized by PNP; cited from earlier work
[4] = cited from earlier work
human OA chondrocytes [5] = test: Cellular NAD, NADH and NAD/NADH ratio in human OA chondrocytes; type: cell-based
Text: (§1) In this study, it was observed that CD38 expression is increased in human knee cartilage of both osteoarthritis (OA) and aged donors (FIGS. 1A and 1B), in primary human knee OA chondrocytes (FIG. 1C) and in chondrocytes stimulated with IL-1, a pro-inflammatory cytokine implicated to play an important role in OA pathogenesis (FIG. 1E). […] In addition, NRH prevented IL-1β-induced CD38 expression at both mRNA and protein levels (FIGS. 2D and 2E) and decline of NAD levels and NAD/NADH ratio (FIGS. 2F and 2G). […] It was observed that NRH has higher potency than NR to inhibit IL-1β-induced catabolic responses in chondrocytes, evidenced by that similar efficacy was achieved by NRH used at concentration 10 times less than NR (data not shown).

CD38 = test: IL-1β-induced CD38 expression in chondrocytes; type: cell-based, human; details: mRNA and protein levels
Text: as §1

MMP3 = test: IL-1β-induced MMP3 expression at cellular and tissue levels; type: cell-based, human; details: cellular (mRNA and protein) levels and tissue levels
Text: as §1

MMP13 = test: IL-1β-induced MMP13 expression at cellular and tissue levels; type: cell-based, human; details: cellular (mRNA and protein) levels and tissue levels
Text: as §1

[6] = system: cartilage matrix degradation; test: IL-1β-induced release of matrix protein glycosaminoglycan (GAG); type: cell-based
Text: as §1

chondrocytes = test: IL-1β-induced catabolic responses in chondrocytes, NRH versus NR; type: cell-based; details: inhibition of IL-1β-induced catabolic responses; data not shown
Text: as §1

post-traumatic OA model = test: Post-traumatic OA model (DMM surgery) in mice, oral NRH; type: in vivo
Protocol: Given that NRH is a natural NAD precursor with oral bioavailability and its ability to not only promote NAD^+ biosynthesis, but also prohibit NAD^+ degradation by inhibiting CD38, it was next tested whether oral administration of NRH limits OA development in mice using a post-traumatic OA model. Destabilization of medial meniscus (DMM) surgery was performed on the right knee of mice to cause joint injury and started NRH treatment through gavage 2 week after the surgery. Pain behaviors such as pain sensitivity and spontaneous pain were evaluated by Von Frey and static weight bearing tests, respectively, at baseline and every 2 weeks after the surgery. At 10 weeks after the surgery, mice were sacrificed, and knee OA pathological changes including cartilage degradation, synovial inflammation and osteophyte formation were assessed.

[7] = cited from earlier work; remark: listed apart in the source
[8] = 10 uM alone, serum-present (10% FCS), donors OA277, OA279
[9] = human OA chondrocytes stimulated with NRH
[10] = NRH by gavage from 2 weeks after DMM surgery, assessed at 10 weeks
[11] = at 6, 8 and 10 weeks after the surgery

PNP, sequence (P00491 whole entry): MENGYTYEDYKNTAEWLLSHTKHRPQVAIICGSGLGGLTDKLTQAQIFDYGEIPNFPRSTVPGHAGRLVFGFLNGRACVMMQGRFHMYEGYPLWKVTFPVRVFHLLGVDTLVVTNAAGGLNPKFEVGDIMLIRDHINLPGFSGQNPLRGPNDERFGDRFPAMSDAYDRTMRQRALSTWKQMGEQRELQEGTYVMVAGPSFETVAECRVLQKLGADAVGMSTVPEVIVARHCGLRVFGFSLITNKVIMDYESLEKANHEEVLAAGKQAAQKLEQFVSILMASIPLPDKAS

Compound: O=c1[nH]cnc2c(CN3C[C@H](CO)[C@@H](O)C3)c[nH]c12 [Ulodesine]
- participants achieving the target SU of less than 6 mg/dL (gout patients): approximately one third
- IC50 for PNP (PNP): in the nM concentration range

Compound: NC(=O)c1ccc[n+]([C@@H]2O[C@H](CO)[C@@H](O)[C@H]2O)c1 [NR, nicotinamide riboside]
- effect on IL-1β-induced NO release (human OA chondrocytes [1]; [8]): little effect
- effect on IL-1β-induced NO release (human OA chondrocytes [1]; NR 10 and 100 uM, serum-free, donor OA278): robust inhibition
- effect on IL-1β-induced NO release (human OA chondrocytes [1]; NR 10 and 100 uM, serum-present (10% FCS), donor OA278): little effect
- concentration at which significant inhibition of IL-1β-induced NO release was observed when used alone (human OA chondrocytes [1]): 200 µM
- MSU crystal-induced infiltrating inflammatory cells [2]: significantly inhibited
- stability in plasma (degradation to NAM) [3]: rapidly degraded
- tolerability and safety ([4]; chronic oral supplementation, human): well-tolerated, safe
- human NAD+ metabolism ([4]; chronic oral supplementation): boosted
- blood pressure and exercise performance ([4]; dietary supplementation, elderly individuals): only mild benefits
- glucose tolerance and β-cell secretory capacity ([4]; nondiabetic men with obesity): no significant impact
- skeletal muscle mitochondria ([4]; obese and insulin-resistant men): no significant impact

Compound: NC(=O)C1=CN([C@@H]2O[C@H](CO)[C@@H](O)[C@H]2O)C=CC1 [NRH, dihydronicotinamide riboside]
- IL-1β-induced decline of NAD levels (human OA chondrocytes [5]; IL-1β stimulation): prevented
- IL-1β-induced decline of NAD/NADH ratio (human OA chondrocytes [5]; IL-1β stimulation): prevented
- NAD/NADH ratio (human OA chondrocytes [5]; [9]): dramatically increased
- cellular levels of NAD (human OA chondrocytes [5]; [9]): dramatically increased
- cellular levels of NADH (human OA chondrocytes [5]; [9]): dramatically increased
- IL-1β-induced CD38 expression (CD38): prevented
- IL-1β-induced expression of MMP3 (MMP3): completely attenuated
- IL-1β-induced expression of MMP13 (MMP13): completely attenuated
- IL-1β-induced release of glycosaminoglycan (GAG) [6]: significantly inhibited
- concentration of NRH relative to NR giving similar efficacy (chondrocytes): 10 times less
- cartilage damage (post-traumatic OA model; [10]): significantly reduced
- osteophyte size and maturity (post-traumatic OA model; [10]): significantly reduced
- synovial inflammation (post-traumatic OA model; [10]): significantly reduced
- paw withdraw threshold (Von Frey) (post-traumatic OA model; [11]): significantly increased
- weight bearing capacity (post-traumatic OA model; [11]): significantly increased
- effect on IL-1β-induced NO release (human OA chondrocytes [1]; [8]): little effect
- concentration at which significant inhibition of IL-1β-induced NO release was observed when used alone (human OA chondrocytes [1]): 200 µM
- MSU crystal-induced infiltrating inflammatory cells [2]: significantly inhibited
- NRH in circulation after NRH treatment ([7]; mice): detectable
- NR in circulation after NRH treatment versus after NR administration ([7]; mouse, in vivo): much higher levels
- stability compared to NR ([7]; mouse, in vivo): more stable
